≈ marks a conversion by molar mass, not a printed value.
Tests used:
L-1210 Leukemia = assay: L-1210 leukemia in vivo, IV drug vs IP tumor, dosed on day 1; design: species or system Male BDF1 mice; conditions: IV drug vs IP tumor, dosed on day 1; for Best T/C: T/C = median survival treated/control x 100, each value at the dose (1-600 µg/kg); for cures: animals surviving 30 days are considered cured, at the dose (µg/kg)
From the text: (§1) Table 3 presents data comparing [S-(R*,R*)]-6,6′-[carbonylbis(imino-1H-indole-5,2-dicarbonyl)]bis[8-chloromethyl)-3,6,7,8-tetrahydro-1-methyl-benzo[1,2-b:4,3-b′]dipyrrol-4-ol (Compound 1) with (7bR)-N-[2-[(4,5,8,8a-tetrahydro-7-methyl-4-oxocyclopropa-[C]pyrrolo[3,2-e]indol-2(1H)0yl)carbonyl]-1H-indol-5-yl]-2-benzofurancarboxamide (U-73,975) in the other murine systems where the compounds have been run jointly.
The results set forth in Tables 1 and 4 were obtained using standard well known procedures (In Vivo Cancer, Models, NIH Publication No. 84-2635, 1984).
T/C refers to median life span of treated mice divided by median life span of control mice times 100.

L1210 leukemia cells = assay: In vitro L1210 cell growth inhibition; assay type: cell-based, murine; conditions: Mus musculus, concentration of drug which inhibits cell growth 50%, read-out: ID50 (the source's name)
From the text: as §1

| Structure (SMILES) | Best T/C (L-1210 Leukemia) | IC50 (L1210 leukemia cells) [ng/mL] | cures (L-1210 Leukemia) |
| --- | --- | --- | --- |
| Cc1c[nH]c2c(O)cc3c(c12)[C@H](CCl)CN3C(=O)c1cc2cc(NC(=O)c3ccc4[nH]c(C(=O)Nc5ccc6[nH]c(C(=O)N7C[C@@H](CCl)c8c7cc(O)c7[nH]cc(C)c87)cc6c5)cc4c3)ccc2[nH]1 [Compound 11, [S-(R*,R*)]-N,N′-bis[2-[[1-(chloromethyl)-1,6-dihydro-5-hydroxy-8-methylbenzo[1,2-b:4,3-b′]dipyrrol-3(2H)-yl]carbonyl]-1H-indol-5-yl]-1H-indole-2,5-dicarboxamide] | 188 | – | – |
| Cc1c[nH]c2c(O)cc3c(c12)[C@H](CCl)CN3C(=O)c1cc2cc(NC(=O)CC(=O)Nc3ccc4[nH]c(C(=O)N5C[C@@H](CCl)c6c5cc(O)c5[nH]cc(C)c65)cc4c3)ccc2[nH]1 [Compound 8, [R-(R*,S*)]-N,N′-bis[2[[1-(chloromethyl)-1,6-dihydro-5-hydroxy-8-methylbenzo[1,2-b:4,3-b′]dipyrrol-3(2H)-yl]carbonyl]-1H-indol-5-yl]-propanediamide] | 194 | 0.006 (≈ 0.007 nM) | – |
| CC(=O)Oc1cc2c(c3c(C)c[nH]c13)[C@H](CCl)CN2C(=O)c1cc2cc(NC(=O)Nc3ccc4[nH]c(C(=O)N5C[C@@H](CCl)c6c5cc(OC(C)=O)c5[nH]cc(C)c65)cc4c3)ccc2[nH]1 [Compound 9, [S-(R*,R*)]-6,6′-[carbonylbis(imino-1H-indole-5,2-diylcarbonyl)bis[8-(chloromethyl)-3,6,7,8-tetrahydro-1-methyl-benzo[1,2-b:4,3-b′]dipyrrol-4-ol diacetate] | 165 | – | – |
| Cc1c[nH]c2c(O)cc3c(c12)[C@H](CCl)CN3C(=O)c1ccc(C(=O)N2C[C@@H](CCl)c3c2cc(O)c2[nH]cc(C)c32)[nH]1 [Compound 4, [S-(R*,R*)]-6,6′-(1H-pyrrole-2,5-diyldicarbonyl)bis[8-(chloromethyl)-3,6,7,8-tertrahydro-1-methyl-benzo[1,2-b:4,3-b′-]dipyrrol-4-ol] | 156 | 0.004 (≈ 0.00675 nM) | – |
| Cc1c[nH]c2c(O)cc3c(c12)[C@H](CCl)CN3C(=O)c1cc2cc(NC(=O)c3ccc(C(=O)Nc4ccc5[nH]c(C(=O)N6C[C@@H](CCl)c7c6cc(O)c6[nH]cc(C)c76)cc5c4)[nH]3)ccc2[nH]1 [Compound 7, [S-(R*,R*)]-N,N′-bis[2[[1-(chloromethyl)-1,6-dihydro-5-hydroxy-8-methylbenzo[1,2-b:4,3-b′]dipyrrol-3(2H)-yl]carbonyl]-1H-indol-5-yl]-1H-pyrrole-2,5-dicarboxamide] | 156 | 0.004 (≈ 0.0044 nM) | – |
| Cc1c[nH]c2c(O)cc3c(c12)[C@H](CCl)CN3C(=O)c1ccc2[nH]c(C(=O)Nc3ccc4[nH]c(C(=O)N5C[C@@H](CCl)c6c5cc(O)c5[nH]cc(C)c65)cc4c3)cc2c1 [Compound 13, [S-(R*,R*)]-5-[[1-(chloromethyl)-1,6-dihydro-5-hydroxy-8-methylbenzo[1,2-b:4,3-b′]dipyrrol-3(2H)-yl]-carbonyl)-N-[2-[[1-(chloromethyl)-1,6-dihydro-5-hydroxy-8-methylbenzo[1,2-b:4,3-b′]dipyrrol-3(2H)-yl]carbonyl)-1H-indol-5-yl]-1H-indole-2-carboxamide] | 188 | – | – |
| Cc1c[nH]c2c(O)cc3c(c12)[C@H](CCl)CN3C(=O)c1cc2c3c(ccc2[nH]1)N(C(=O)N1CCc2c1ccc1[nH]c(C(=O)N4C[C@@H](CCl)c5c4cc(O)c4[nH]cc(C)c54)cc21)CC3 [Compound 16, [S-(R*,R*)]-6,6′-[carbonylbis[(7,8-dihydrobenzo[1,2-b:4,3-b′]dipyrrole-6,2(3H)-diyl)carbonyl]]bis[8-chloromethyl)-3,6,7,8-tetrahydro-1-methyl-benzo[1,2-b:4,3b′]dipyrrol-4-ol] | 243 | 0.002 (≈ 0.0023 nM) | 1/6 |
| Cc1c[nH]c2c(O)cc3c(c12)[C@H](CCl)CN3C(=O)c1cc2cc(NC(=O)C(=O)Nc3ccc4[nH]c(C(=O)N5C[C@H](CCl)c6c5cc(O)c5[nH]cc(C)c65)cc4c3)ccc2[nH]1 [Compound 3, (R*,S*)-N,N′-bis[2-[[1-(chloromethyl)-1,6-dihydro-5-hydroxy-8-methylbenzo[1,2-b:4,3-b′]dipyrrol-3(2H)-yl]carbonyl]-1H-indol-5-yl]-ethanediamide] | 106 | 0.009 (≈ 0.0107 nM) | – |
| Cc1c[nH]c2c(O)cc3c(c12)[C@H](CCl)CN3C(=O)c1ccc2[nH]c(C(=O)N3C[C@@H](CCl)c4c3cc(O)c3[nH]cc(C)c43)cc2c1 [Compound 10, [S-(R*,R*)]-6,6′-(1H-indole-2,5-diyldicarbonyl)bis[8-(chloromethyl)-3,6,7,8-tetrahydro-1-methyl-benzo[1,2-b:4,3-b′]dipyrrol-4-ol] | 213 | – | 1 |
| Cc1c[nH]c2c1C13CC1CN(C(=O)c1cc4cc(NC(=O)Nc5ccc6[nH]c(C(=O)N7CC8CC89C7=CC(=O)c7[nH]cc(C)c79)cc6c5)ccc4[nH]1)C3=CC2=O (stereo not drawn) [Compound 2, [7bR-[2(7′bR*,8′aS*), 7bR*,8aS*]]-2,2′-[carbonylbis(imino-1H-indole-5,2-dicarbonyl)]bis[1,2,8,8a-tetrahydro-7-methyl-cyclopropa(c)pyrrolo[3,2-e]indol-4(5H)-one] | 169 | 0.001 (≈ 0.00135 nM) | – |
| CCCCCCCCCC(=O)Oc1cc2c(c3c(C)c[nH]c13)[C@H](CCl)CN2C(=O)c1cc2cc(NC(=O)Nc3ccc4[nH]c(C(=O)N5C[C@@H](CCl)c6c5cc(OC(=O)CCCCCCCCC)c5[nH]cc(C)c65)cc4c3)ccc2[nH]1 [Compound 15, [S-(R*,R*)]-carbonylbis[imino-1H-indole-5,2-diylcarbonyl[1-(chloromethyl)-1,6-dihydro-8-methylbenzo[1,2-b:4,3-b′]dipyrrole-3,5(2H)-diyl]]ester, decanoic acid] | 243 | 0.001 (≈ 0.00089 nM) | 1 |
| Cc1c[nH]c2c(O)cc3c(c12)[C@H](CCl)CN3C(=O)c1cc2cc(NC(=O)c3ccc(C(=O)Nc4ccc5[nH]c(C(=O)N6C[C@@H](CCl)c7c6cc(O)c6[nH]cc(C)c76)cc5c4)o3)ccc2[nH]1 [Compound 6, [S-(R*,R*]-N,N′-bis[2-[[1-(chloromethyl)-1,6-dihydro-5-hydroxy-8-methylbenzo[1,2-b:4,3-b′]dipyrrol-3(2H)-yl]carbonyl]-1H-indol-5-yl]-2,5-furandicarboxamide] | 178 | 0.012 (≈ 0.0132 nM) | 1 |
| Cc1c[nH]c2c(OC(=O)C(C)(C)C)cc3c(c12)[C@H](CCl)CN3C(=O)c1cc2cc(NC(=O)Nc3ccc4[nH]c(C(=O)N5C[C@@H](CCl)c6c5cc(OC(=O)C(C)(C)C)c5[nH]cc(C)c65)cc4c3)ccc2[nH]1 [Compound 14, [S-(R*,R*)]-carbonylbis[imino-1H-indole-5,2-diylcarbonyl[1-(chloromethyl)-1,6-dihydro-8-methylbenzo[1,2-b:4,3-b′]dipyrrole-3,5(2H)-diyl]]ester, 2,2-dimethylpropanoic acid] | 156 | – | – |
| Cc1c[nH]c2c(O)cc3c(c12)[C@H](CCl)CN3C(=O)c1cc2cc(NC(=O)c3ccc4[nH]c(C(=O)N5C[C@@H](CCl)c6c5cc(O)c5[nH]cc(C)c65)cc4c3)ccc2[nH]1 [Compound 12, [S-(R*,R*)]-2-[[1-(chloromethyl)-1,6-dihydro-5-hydroxy-8-methylbenzo[1,2-b:4,3-b′]dipyrrol-3(2H)-yl]carbonyl]-N-[3-[[1-(chloromethyl)-1,6-dihydro-5-hydroxy-8-methylbenzo[1,2-b:4,3-b′]dipyrrol-3(2H)-yl]carbonyl]-1H-indol-6-yl]-1H-indole-5-carboxamide] | 181 | – | – |
| Cc1c[nH]c2c(O)cc3c(c12)[C@H](CCl)CN3C(=O)c1ccc(C(=O)N2C[C@@H](CCl)c3c2cc(O)c2[nH]cc(C)c32)o1 [Compound 5, [S-(R*,R*)]-6,6′-(2,5-furandiyldicarbonyl)bis[8-(chloromethyl)-3,6,7,8-tertrahydro-1-methyl-benzo[1,2-b:4,3′b′]dipyrrol-4-ol] | 156 | 0.01 (≈ 0.0169 nM) | – |
